Data on four compounds can be found in patent publication US20150030683A1, “FORMULATIONS AND METHODS FOR THE TREATMENT OR PROPHYLAXIS OF PRE-MCI AND/OR PRE-ALZHEIMER'S CONDITIONS” (BUCK INSTITUTE FOR RESEARCH ON AGING, priority 2012, published 2015).

Data set [1] is described as follows: Degradation in brain tissue. Format: in vitro ADME. Particulars: probably reduced at the disulfide bond.
For data set [2], the system named is 7W cells stably transfected with APP. The data set can be described thus: […] assay in 7W APP transfected cells. Particulars: 1 μM agent, 24 h. The format is cell-based. As to the method:
7W CHO cells were seeded at 50,000 cells/well in a 96 wells plate for 24 h. Then their medium was changed for fresh medium supplemented with 1 μM of the agent(s) of interest (e.g., tropisetron, disulfiram, honokiol, and/or nimetazepam). After 24 h, 20 μl of the medium was added to 2 μl of the complete protease inhibitor with 1 μM EDTA and kept at 4° C. until analysis. 2 μl of that medium was treated with the Perkin Elmer (PE) […]® Aβ kit to determine the amount of Aβ42 secreted by the cells in 24 h using the PE-Enspire reader. Another aliquot of 2 μl of the medium was diluted with 50 μl of the PE […]® buffer and was treated with the PE […]® sAPPαkit to determine the amount of sAPPαsecreted by the cells in 24 h. For the assay, 2 μl of the final mixture was treated with the acceptor bead and the donor antibody followed by addition of the donor beads and the […]® signal was measured using a PE-Enspire reader. For measurement of APPneo, the 50,000 cells were treated after seeding with fresh medium supplemented with or without the agent(s), but without fetal bovine serum (FBS), in order to induce the formation of the APPneo fragment. After 24 h the medium was removed, the cells on the bottom of the wells were washed three times with phosphate buffered saline (PBS) and then lysed with 50 μl of the Perkin Elmer […]® buffer and with 10% of the complete protease inhibitor with EDTA. […]

Another data set deals with T1, MBP-eAPP230-624 (Homo sapiens, UniProt P05067).
T1 construct: purified MBP-eAPP230-624 were incubated with 50 μM Disulfiram or 50 μM Sulfiram
T1 sequence (P05067 230-624 isoform P05067-4): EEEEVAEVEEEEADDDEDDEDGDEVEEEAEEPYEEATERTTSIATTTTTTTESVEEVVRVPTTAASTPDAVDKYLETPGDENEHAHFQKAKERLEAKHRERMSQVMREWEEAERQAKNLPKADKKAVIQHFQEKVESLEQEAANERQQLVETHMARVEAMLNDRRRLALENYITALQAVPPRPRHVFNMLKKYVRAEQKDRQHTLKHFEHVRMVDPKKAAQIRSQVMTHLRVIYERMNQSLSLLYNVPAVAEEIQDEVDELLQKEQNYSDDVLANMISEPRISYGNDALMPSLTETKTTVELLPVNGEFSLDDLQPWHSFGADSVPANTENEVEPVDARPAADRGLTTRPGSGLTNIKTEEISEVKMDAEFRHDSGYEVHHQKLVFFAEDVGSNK
Kind of data set: Small-angle X-ray scattering of MBP-eAPP230-624 incubated with the agent. The format is binding. Particulars: for MWcalc/MWseq / Rg (radius of gyration) / Dmax (maximum dimension): MBP-eAPP230-624 incubated with 50 μM agent, 4° C., 1 hour; for MWcalc/MWseq: ± 0.2; for Rg (radius of gyration): ± 2; for Dmax (maximum dimension): ± 10; for Binding to APP (MBP-eAPP230-624) and effect on conformation/dimerization: small-angle X-ray scattering, 50 μM agent. As to the method: To 100 μg of purified MBP-eAPP230-624 were incubated with 50 μM Disulfiram or 50 μM Sulfiram in 20 mM sodium phosphate pH 7.4, 137 mM sodium chloride, 0.05% dimethyl sulfoxide at 4° C. for 1 hour. The control sample was incubated in the buffer alone. The samples were then concentrated to approximately 1.5 mg/ml using […] NML concentrators. Small-angle X-ray scattering data were collected using protein concentrations in the range of 0.25-1.5 mg/ml and an X-ray wavelength of 1.11 Å at beam line 12.3.1 (Advanced Light Source). Samples of the filtrate were used for buffer subtraction. Data were integrated with software customized for the beam line and processed with the program PRIMUS (Konarev (2003) Journal of Applied Crystallography 36, 1277-1282). The program GNOM (Svergun (1992) J. Appl. Crystallogr. 25, 495-503) was used to calculate the maximum dimension and the radius of gyration and to estimate the intensity of the scattering at zero angle for higher concentration samples. The molecule weight of each protein was calculated by comparing to the scattering of proteins of known molecule weight.
The apparent drop in molecular weight and maximum dimension (Dmax) are consistent with both sulfiram and disulfiram disrupting the MBP-eAPP230-624 dimers.

Data set [3] is described as follows: Brain uptake testing (PK): plasma and brain levels by LC/MS/MS. On the set-up: species or system mice. As to conditions: mouse, in vivo, sc; for Kp: 10 mg/kg. As to the method:
In general, CNS exposure studies consisted of collection of heparinized plasma and brains after treatment with tropisetron, nimetazepam, disulfiram and honokiol following subcutaneous (sc) administration of the molecules at 10 mg/kg. Plasma and brain levels of the agent(s) were determined by quantitative LC/MS/MS methodology, conducted at Integrated Analytical Solutions (on the internet at ianalytical.net). Plasma samples were precipitated with acetonitrile:methanol (1:1) cocktail containing an internal standard. The brain samples were homogenized directly in ethylacetate or extracted from 5M guanidine homogenates using the liquid-liquid method. The resulting supernatant were evaporated to dryness and subjected to the LC/MS/MS analysis. For each agent 3 mice were used for analysis. The brain-to-plasma ratios and brain levels were then be calculated to identify the best candidate(s) for further testing.

The test system of data set [4] is sAPPα, Aβ40 and Aβ42 levels. The data set can be described thus: Aβ40/42, sAPPα levels in brain (PD) of Alzheimer's disease transgenic mice (PDAPP model). The format is in vivo. As to conditions: Tg mice; for sAPPα levels in hippocampus (Hip) and entorhinal cortex (ECx) / Aβ40 levels / Aβ42 levels: 10 mpk sc, 5 days. As to the method: […]® kits from Perkin Elmer (PE) were used to quantify sAPPα (cat#: AL254C), sAPPβ (cat#: AL232C), Aβ40 (cat #: AL275C), Aβ42 (cat #: AL276C) and Tau (cat#: AL271C) from brain homogenates. The samples are added to an AlphaPlate-384 (cat#: 6005350). Twenty microliters (μl) of acceptor bead antibody mix was added to each five μl cerebrospinal fluid (CSF) sample and allowed to incubate for one hour at room temperature. Next, 25 μl of donor beads were added and allowed to incubate in the dark for 30 minutes at room temperature. Fluorescence was then measured on an EnsPire 96-well plate reader (Perkin-Elmer).
ELISA kits from Invitrogen were also used to quantify Aβ1-40 (KHB3481) and Aβ1-42 (KHB3544) in duplicate from the CSF samples stored at −80° C. For assay, samples were thawed on ice and BSL-2 precautions practiced at all times. For the human Aβ 1-42 ultrasensitive ELISA, samples were diluted 1:2 (50 μl CSF plus 50 μl kit-provided standard diluent buffer). For the human Aβ1-40 ELISA, samples were diluted 1:15 (6.7 μl CSF plus […] of standard diluent buffer). Assays were performed according to manufacturer's instructions. In short, standards and samples were added to a plate pre-coated with a monoclonal capture antibody specific for the amino terminus of Hu Aβ. The samples were co-incubated with a rabbit detection antibody (Ab) specific for the carboxy terminus of the Aβ species being assayed for 3 hr at room temperature (Aβ 1-40) to overnight at 4° (Aβ 1-42) with gentle rocking After washing, bound rabbit Ab was detected using a horseradish peroxidase-labeled anti-rabbit secondary Ab. After washing again, bound HRP-anti rabbit Ab was detected colorimetrically (Spectramax 190, Molecular Devices) by the addition of a substrate solution. 1 mM 4-(2-Aminoethyl)benzenesulfonyl fluoride hydrochloride (AEBSF) protease inhibitor (101500, Calbiochem) was added to standards and samples.
In general, as part of the CNS exposure studies in Alzheimer's disease transgenic (Tg) mice (e.g., the PDAPP mouse model of Alzheimer's disease), tropisetron, nimetazepam, disulfiram and honokiol effects on biomarkers were also measured. In case of tropisetron the testing was done at 0.3 mpk, while in case of the other agent(s) (e.g., nimetazepam, disulfiram and honokiol) it was done at 10 mpk. From the collected brains the hippocampi were dissected. Levels of sAPPα, and Aβ1-40 and Aβ1-42 were measured by […] assay ([…] Perkin-Elmer), and Aβ1-42 (Invitrogen, sensitive ELISA kit) in brain homogenates of Tg mice. All procedures involved have been described (Galavan 2006, Proc Natl Acad Sci USA, 103, 7130-7135). […] The brain-to-plasma ratio (PK) of tropisetron and sAPPalpha/Aβ42 ratios (PD) were then determined.

For data set [5] the following is noted: known for the benzodiazepine; cited from earlier work.

For `CCN(CC)C(=S)SSC(=S)N(CC)CC` [Disulfiram, 1,1′,1″,1′″-[disulfanediylbis(carbonothioylnitrilo)]tetraethane], the “Stability in brain tissue” value in data set [1] was “degrades rapidly”. Also, the “sAPPα levels secreted by 7W cells” value in data set [2] was “increase”. In addition, on MBP-eAPP230-624, the MWcalc/MWseq was 1.5; the “Rg (radius of gyration)” value is 51 Å; the “Dmax (maximum dimension)” value worked out at 160 Å; the “Binding to APP (MBP-eAPP230-624) and effect on conformation/dimerization” value (shortened to “Binding to APP … on conformation/dimerization”) is “can bind to APP and disrupt APP dimerization”. Also, on MBP-eAPP230-624 (inferred from greater effect in X-ray scattering), the “Binding affinity compared with sulfiram” value is “higher binding affinity”. Moreover, the “Binding to APP … on conformation/dimerization” value on MBP-eAPP230-624 (listed as disulfiram) was “bind to MBP-eAPP230-624 and alter the conformation of the protein”. Further, in data set [3], the “blood-brain-barrier / brain penetration” value was “low blood-brain-barrier penetration” and the Kp is < 0.1. Also, the Aβ levels result in data set [4] (10 mpk) is listed as “no changes”. Moreover, in data set [4], the “sAPPα levels in hippocampus (Hip) and entorhinal cortex (ECx)” value (“sAPPα levels in hippocampus” for short) was “no changes”.

For the compound `CCN(CC)C(=S)SC(=S)N(CC)CC` [Sulfiram], at MBP-eAPP230-624, the MWcalc/MWseq is given as 1.7; the “Rg (radius of gyration)” value stood at 53 Å; the “Dmax (maximum dimension)” value turned out to be 170 Å; the “Binding to APP … on conformation/dimerization” value is “bind to MBP-eAPP230-624 and alter the conformation of the protein”.

As for `C=CCc1ccc(O)c(-c2ccc(O)c(CC=C)c2)c1` [Honokiol, 2-(4-hydroxy-3-prop-2-enyl-phenyl)-4-prop-2-enyl-phenol], in data set [3], the “blood-brain-barrier / brain penetration” value is “penetrates the brain well” and the Kp was ~1. In data set [4], the Aβ40 levels result is recorded as “No significant changes”; the Aβ42 levels entry is “No significant changes”; the “sAPPα levels in hippocampus” value is given as “no significant increase”.

As to `CN1C(=O)CN=C(c2ccccc2)c2cc([N+](=O)[O-])ccc21` [Nimetazepam, 2-methyl-9-nitro-6-phenyl-2,5-diazabicyclo [5.4.0]undeca-5,8,10,12-tetraen-3-one], the Aβ40 levels result in data set [4] is reported as “No significant changes”. The Aβ42 levels entry in data set [4] was “No significant changes”. Moreover, the “sAPPα levels in hippocampus” value in data set [4] (10 mg/kg) is listed as “significant increase”; in data set [4] (listed as nimetazepam, 10 mg/kg), “increase”. For the same compound, the blood-brain-barrier crossing result in data set [5] is “known to cross the blood-brain-barrier well”.
